US11723886B2, “Targeting ocular diseases with novel APE1/Ref-1 inhibitors” (Indiana University Research and Technology Corporation, priority 2018, dated 2023)
“Also recorded” adds a separate entry of the source.

Columns and labels:
[1] = test system: retinal and choroidal endothelial cells; details: cited from earlier work
[2] = molecular target: Ref-1/APE1 endonuclease activity (Homo sapiens, UniProt P27695); details: cited from earlier work
[3] = test system: laser-induced choroidal neovascularization
[4] = test system: NF-κB and HIF-1α activity; details: retinal pigment epithelial cells; concomitant reduction in VEGF expression; cited from earlier work
[5] = test system: laser-induced choroidal neovascularization; details: delivered intravitreally; cited from earlier work
[6] = test system: APE1 repair activity in neurons; details: cited from earlier work
[7] = test system: total vessel density and VEGF expression; details: stroke in type one diabetes mellitus rats; cited from earlier work
[8] = test system: retinal neovascularization; details: delivered intravitreally; cited from earlier work

Chain of Ref-1/APE1 endonuclease activity (P27695 whole entry): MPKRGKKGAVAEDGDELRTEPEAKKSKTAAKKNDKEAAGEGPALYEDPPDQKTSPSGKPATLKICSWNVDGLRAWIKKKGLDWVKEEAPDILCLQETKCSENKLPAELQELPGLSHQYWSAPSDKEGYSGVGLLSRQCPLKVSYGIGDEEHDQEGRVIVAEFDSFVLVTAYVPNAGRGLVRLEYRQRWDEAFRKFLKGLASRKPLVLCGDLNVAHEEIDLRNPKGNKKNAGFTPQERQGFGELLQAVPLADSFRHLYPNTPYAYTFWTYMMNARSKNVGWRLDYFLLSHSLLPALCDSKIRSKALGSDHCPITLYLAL

For `CCCCCCCCC/C(=C\C1=C(C)C(=O)C(OC)=C(OC)C1=O)C(=O)O` [APX3330], the “in vitro angiogenesis (proliferation, migration, tube formation)” value [1] is given as “block in vitro angiogenesis”, the “effect on endonuclease / APE1 activity” value [2] is given as “does not affect the protein's endonuclease activity; also recorded: do not inhibit APE1 activity” and the “intraocular or systemic toxicity in vivo” value ([3]; i.p. dosing in L-CNV mice) is given as “not observed obvious intraocular or systemic toxicity”. For the same compound, the L-CNV volume ([3]; i.p., 50 mg/kg twice daily, 5 days on/two days off, two weeks) was “significantly reduced L-CNV volume”, the “NF-κB and HIF-1α activity” value [4] was “reduced both NF-κB and HIF-1α activity” and the “neovascularization, L-CNV” value [5] was “reduced neovascularization”. The “APE1 repair activity in neurons” value [6] was “can enhance APE1 repair activity”, the “total vessel density and VEGF expression” value [7] was “significantly decreased total vessel density and VEGF expression” and the “neovascularization, VLDLR knockout mouse” value [8] was “reduced neovascularization”.
